Experimental data taken from patent publication US20220002400A1 (priority 2019, published 2022).
Values joined by “and” are separate entries in the source; they are usually repeats but may differ in a detail not shown here. Equal values may be shown once.

Tests used:
Type in all cases: cell-based
A549 cells = conditions: 100 nM for 1 hour at 37° C.
Influenza A PR8 virus [1] = test system: Influenza A PR8 virus
Influenza A PR8 virus [2] = conditions: 10 nM

Compound	lysotracker staining (A549 cells)	protection against IAV infection (percentage of HA+ cells) (Influenza A PR8 virus [1])	effect of baloxavir marboxil treatment combined with CRISPR deletion on Influenza A virus infection (Influenza A PR8 virus [2]; 1 nM, 5 nM)	reduction of the rate of Influenza A virus infection compared to untreated cells, according to Hemagglutinin staining (Influenza A PR8 virus [2])
CO/C1=C\C(C)=C\[C@@H](C)[C@@H](O)[C@@H](C)C/C(C)=C/C=C/[C@H](OC)[C@@H]([C@@H](C)[C@@H](O)[C@H](C)[C@@]2(O)C[C@@H](O)[C@H](C)[C@@H](C(C)C)O2)OC1=O [BafA, Bafilomycin A]	a decrease in lysotracker staining was observed	further protected the KO cells against IAV infection		
COC(=O)OCOc1c2n(ccc1=O)N([C@@H]1c3ccccc3SCc3c1ccc(F)c3F)[C@@H]1COCCN1C2=O [baloxavir marboxil]			synergistic effect with baloxavir marboxil treatment but to a lesser extent compared to CMTR1	58% and 91%
